# Measurements published in US20040161786A1, “Gene panel participative in hepatic stellate cell activation” (priority 2001, published 2004).
# Tested on: hepatic fibrosis
# Test: Dimethylnitrosamine (DMN)-induced hepatic fibrosis, hydroxyproline (Hyp) in the liver
# Format: in vivo
# Conditions: SD male rat, DMN 10 mg/kg i.p. three times a week for four weeks, diet containing 0.5% L-cysteine vs 0.5% casein, 28th day
# Method: Hepatic fibrosis was induced by intraperitoneally administering 10 mg/kg of dimethylnitrosamine (DMN) to a 6-week SD male rat three times a week for four weeks. Then, an experimental diet containing 0.5% of L-cysteine (Cys) as a subject and that containing 0.5% of casein as a control were fed from the initiation date of the DMN administration. On the 28th day from the initiation of the […] administration, the liver was sampled from the subject and the amount of hydroxyproline (Hyp) in the liver was measured as an index of hepatic fibrosis using an amino acid analyzer.
compound,measurement,value
"N[C@@H](CS)C(=O)O [cysteine, L-cysteine]",increase in Hyp in the liver (index of hepatic fibrosis),significantly suppressed
